# Legend:
# [1] = tested on: adult Lepidoptera; settings: U.S. Pat. No. 5,665,344; cited from earlier work
# [2] = tested on: broad bean, V. faba (cv The Sutton); assay: Induction of volatile release by bean plants (air entrainment, GC/GC-MS); assay type: in vivo, Vicia faba; settings: 24 hour exposure at 100 μg/l in air; from some replicates
# Description: (§1) A possible role for the compound as an airborne plant signal was investigated using the broad bean, V. faba (cv The Sutton). Plants were kept for 24 hours in clean air or in air incorporating cis-jasmone at 100 μg/l; subsequently, samples of volatiles released by the plants were obtained by entrainment over 4 periods of 48 hours, i.e. up to 192 hours after the end of the treatment. The cis-jasmone itself was undetectable after 48 hours. […] There was also, from some replicates, enhancement of (E,E)-α-farnesene, (−)-β-caryophyllene and (E)-4,8-dimethyl-1,3,7-nonatriene. These compounds have all been implicated in herbivorous insect-induced production and increased parasitoid foraging. The nonatriene can also be produced innately by plants imitating damage for defence against herbivores and which are thus attractive to parasitoids.
# Bean plants, V. faba (cv The Sutton) were grown under standard glasshouse conditions until the 2-4 leaf stage when they were rinsed free of soil and transplanted into baked glass jars containing washed sand, with 3 plants per jar. These were left for 1-2 days to acclimatize. Plants to be treated (three jars of three plants each) were sealed in a 25 l glass tank for 24 hours with either cis-jasmone or methyl jasmonate (2.5 mg) applied to a piece of filter paper (Whatman No. 1) placed on the floor of the tank. […]
# [3] = tested on: aphid parasitoid Aphidius ervi; assay: Wind tunnel responses of A. ervi to V. faba plants exposed to the compound; assay type: in vivo
# Description: as §1
# Naive female A. ervi were flown in a wind tunnel, as described in J. Chem. Ecol. 16, 381-396 (1996) (Poppy et al.). The parasitoids were released 25 cm downwind (single choice tests) or 40 cm downwind (dual choice test) of the target, which was either a plant or a synthetic compound (10 μg in 10 μl hexane) placed on a 2×1 cm strip of filter paper (Whatman No. 1) surrounded by a ring of green crêpe paper. The proportions of parasitoids responding with an oriented flight to the synthetic chemicals were calculated each day on 3 separate days. These values were then subjected to a logit transformation to normalize the data before being analysed by ANOVA followed by Tukey post-hoc tests. The number of parasitoids orienting upwind to the single plant target were recorded and subjected to a χ^2 contingency test (Pearson method on Genstat—see Genstat 5 Committee. Genstat 5 Reference Manual, Release 3 (Clarendon Press, Oxford, 1993)) to determine whether an orienting response was linked to the type of plant treatment. The numbers orienting to each plant in the dual choice test were analysed by a χ^2 to determine whether one plant was more attractive than the other. […]
# [4] = tested on: cereal aphids (predominantly Metropolophium dirhodum) on winter wheat, Triticum aestivum; assay: Field study of cereal aphids on sprayed winter wheat plots; assay type: in vivo; settings: sprayed 50 g a.i./ha on 5 May and 11 Jun. 1999
# Description: The data have been transformed back from the logs to ease presentation. […] The predominant aphid species was Metropolophium dirhodum, the rose-grain aphid. S. avenae and Rhopalosiphum padi were also present, but numbers were very low. […] Plots (6 m×6 m) of winter wheat, Triticum aestivum (cv Consort), were arranged in a 5×5 quasi-complete Latin square design. The five cis-jasmone treated plots were sprayed on 5 May and 11 Jun. 1999, using a hand-held hydraulic device, at a rate of 50 g active ingredient/ha in 200 l/ha of aqueous […] BV (0.1%). Control plots were untreated. […] At each count, five tillers were inspected at 12 separate sites on two diagonal transects totalling 60 tillers per plot. Transformed data (y=log(y+1)) were subjected to ANOVA and the sums of squares of the treatments were partitioned to test for significant differences.
# [5] = tested on: seven-spot ladybird, Coccinella seplempunclata; assay: Olfactometer assay with seven-spot ladybird; assay type: in vivo; settings: 0.5 μl microcaps, position noted every 2 min for 20 min, 8 replicates; control arms 2.4±0.69; P<0.005
# Description: Since semiochemicals acting as repellents or inhibitors of host attractancy for herbivorous insects are often involved in predation or parasitism, the activity of cis-jasmone was also investigated at higher trophic levels. […] These experiments indicate a behavioural role for cis-jasmone in influencing interactions between plants, herbivorous insects and their predators and parasitoids. Apparatus and methodology were similar to that employed for aphids (above). The test compound was applied in 0.5 μl microcaps (Drummond Sci. Co.) at the end of one of the side arms and each arm was supplied with moist filter paper to minimize differences in relative humidity. Individual C. septempunctata were introduced into the centre of the arena and their positions noted every 2 min for 20 min. The experiment was replicated 8 times and results analysed as above.
smiles,measurement,setting,value
CC/C=C\CC1=C(C)CCC1=O [cis-jasmone],behavioural effect on adult Lepidoptera,[1],attract adult Lepidoptera
same,"release of (E,E)-α-farnesene, (−)-β-caryophyllene and (E)-4,8-dimethyl-1,3,7-nonatriene",[2],enhancement
same,% showing oriented flight,"[3]; V. faba plants 48 hr after exposure (100 μg/l in air), single choice test, hexane control 20, P<0.01",44%
same,parasitoids oriented towards the treated plant compared to the control,[3]; dual choice test of treated or untreated plants,over 3 times
same,% oriented to treated plant,"[3]; dual choice test, treated plant versus control plant, 48 hr after exposure (100 μg/l in air), control plant 10, P<0.05",32%
same,"numbers of parasitized aphids, treated versus untreated plots",[4],no significant difference
same,"numbers of cereal aphids per 60 tillers, treated versus untreated plots","[4]; five sampling dates, significant on last two dates",consistently lower
same,mean number of observations in the treated arm,[5],4.1±1.55
